# Results taken from ChEMBL document CHEMBL1138676, “Liver-selective glucocorticoid antagonists: a novel treatment for type 2 diabetes” (J Med Chem, 2004).
# Tests used:
# Androgen receptor = target: T1, Androgen receptor (Homo sapiens, UniProt P10275)
# T1 sequence (P10275 whole entry): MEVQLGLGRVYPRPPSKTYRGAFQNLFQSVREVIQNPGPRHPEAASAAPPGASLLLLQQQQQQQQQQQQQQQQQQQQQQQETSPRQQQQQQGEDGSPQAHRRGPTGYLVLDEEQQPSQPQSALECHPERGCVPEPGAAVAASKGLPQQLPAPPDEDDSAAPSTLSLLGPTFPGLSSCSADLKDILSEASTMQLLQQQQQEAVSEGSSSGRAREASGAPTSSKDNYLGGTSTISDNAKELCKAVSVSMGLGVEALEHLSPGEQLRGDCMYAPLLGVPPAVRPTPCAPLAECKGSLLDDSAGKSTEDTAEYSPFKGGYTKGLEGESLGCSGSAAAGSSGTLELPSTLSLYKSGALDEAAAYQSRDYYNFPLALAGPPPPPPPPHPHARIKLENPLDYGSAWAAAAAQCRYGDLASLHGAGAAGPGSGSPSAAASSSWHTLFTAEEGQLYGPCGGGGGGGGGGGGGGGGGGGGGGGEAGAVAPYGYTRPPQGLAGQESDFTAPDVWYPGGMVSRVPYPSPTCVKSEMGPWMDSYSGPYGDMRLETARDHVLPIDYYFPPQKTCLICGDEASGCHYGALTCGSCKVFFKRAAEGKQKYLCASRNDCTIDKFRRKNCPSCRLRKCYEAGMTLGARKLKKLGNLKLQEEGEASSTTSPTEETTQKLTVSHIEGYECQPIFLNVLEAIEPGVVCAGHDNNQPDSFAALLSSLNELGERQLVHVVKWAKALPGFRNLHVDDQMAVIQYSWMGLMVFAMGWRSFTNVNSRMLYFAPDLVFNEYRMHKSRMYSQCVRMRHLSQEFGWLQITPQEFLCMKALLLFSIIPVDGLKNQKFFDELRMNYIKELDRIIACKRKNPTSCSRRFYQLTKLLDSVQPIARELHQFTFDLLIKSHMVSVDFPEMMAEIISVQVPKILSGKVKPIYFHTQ
# Description: Inhibition of human androgen receptor
# [1] = target: T2, Thyroid hormone receptor beta (Homo sapiens, UniProt P10828); assay: Inhibition of human Thyroid hormone receptor beta
# T2 sequence (P10828 whole entry): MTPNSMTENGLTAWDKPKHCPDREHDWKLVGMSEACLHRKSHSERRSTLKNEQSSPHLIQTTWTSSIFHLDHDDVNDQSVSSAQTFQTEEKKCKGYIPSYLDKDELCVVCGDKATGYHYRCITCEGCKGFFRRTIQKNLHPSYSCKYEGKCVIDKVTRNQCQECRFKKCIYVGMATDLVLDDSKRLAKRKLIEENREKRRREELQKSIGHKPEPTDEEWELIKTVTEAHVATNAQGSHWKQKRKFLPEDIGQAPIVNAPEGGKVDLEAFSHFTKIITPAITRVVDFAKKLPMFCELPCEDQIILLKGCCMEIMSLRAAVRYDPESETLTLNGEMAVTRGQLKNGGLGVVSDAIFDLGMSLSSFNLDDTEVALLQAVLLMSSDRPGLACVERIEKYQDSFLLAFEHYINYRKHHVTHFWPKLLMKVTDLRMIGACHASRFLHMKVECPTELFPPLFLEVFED
# [2] = target: Glucocorticoid receptor (Rattus norvegicus) (UniProt P06536); assay: Inhibition of glucocorticoid receptor mediated tyrosine amino transferase activity
# Chain of Glucocorticoid receptor (Rattus norvegicus) (P06536 whole entry, looked up): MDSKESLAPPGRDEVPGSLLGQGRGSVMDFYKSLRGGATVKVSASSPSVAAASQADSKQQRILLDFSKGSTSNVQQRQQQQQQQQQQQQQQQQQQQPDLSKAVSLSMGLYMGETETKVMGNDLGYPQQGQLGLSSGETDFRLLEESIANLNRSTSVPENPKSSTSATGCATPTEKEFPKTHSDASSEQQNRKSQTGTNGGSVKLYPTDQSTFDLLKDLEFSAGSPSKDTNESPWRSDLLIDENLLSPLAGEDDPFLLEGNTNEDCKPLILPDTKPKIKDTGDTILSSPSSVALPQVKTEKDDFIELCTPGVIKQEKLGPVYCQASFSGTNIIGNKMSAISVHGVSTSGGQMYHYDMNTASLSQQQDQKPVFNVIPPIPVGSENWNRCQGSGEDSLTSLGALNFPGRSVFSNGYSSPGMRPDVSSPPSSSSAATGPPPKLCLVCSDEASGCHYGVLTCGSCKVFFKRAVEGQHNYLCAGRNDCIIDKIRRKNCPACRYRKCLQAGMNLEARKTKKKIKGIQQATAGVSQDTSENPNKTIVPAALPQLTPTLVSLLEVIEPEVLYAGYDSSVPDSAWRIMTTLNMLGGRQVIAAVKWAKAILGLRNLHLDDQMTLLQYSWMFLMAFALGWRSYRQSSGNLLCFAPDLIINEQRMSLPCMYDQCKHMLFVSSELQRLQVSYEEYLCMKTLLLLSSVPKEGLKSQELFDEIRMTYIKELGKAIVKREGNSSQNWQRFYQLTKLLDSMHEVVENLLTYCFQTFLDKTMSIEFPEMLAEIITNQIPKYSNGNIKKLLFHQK
# Glucocorticoid receptor = target: T3, Glucocorticoid receptor (Homo sapiens, UniProt P04150); assay: Inhibition of glucocorticoid receptor dependent alkaline phosphatase activity; format: functional
# T3 sequence (P04150 whole entry): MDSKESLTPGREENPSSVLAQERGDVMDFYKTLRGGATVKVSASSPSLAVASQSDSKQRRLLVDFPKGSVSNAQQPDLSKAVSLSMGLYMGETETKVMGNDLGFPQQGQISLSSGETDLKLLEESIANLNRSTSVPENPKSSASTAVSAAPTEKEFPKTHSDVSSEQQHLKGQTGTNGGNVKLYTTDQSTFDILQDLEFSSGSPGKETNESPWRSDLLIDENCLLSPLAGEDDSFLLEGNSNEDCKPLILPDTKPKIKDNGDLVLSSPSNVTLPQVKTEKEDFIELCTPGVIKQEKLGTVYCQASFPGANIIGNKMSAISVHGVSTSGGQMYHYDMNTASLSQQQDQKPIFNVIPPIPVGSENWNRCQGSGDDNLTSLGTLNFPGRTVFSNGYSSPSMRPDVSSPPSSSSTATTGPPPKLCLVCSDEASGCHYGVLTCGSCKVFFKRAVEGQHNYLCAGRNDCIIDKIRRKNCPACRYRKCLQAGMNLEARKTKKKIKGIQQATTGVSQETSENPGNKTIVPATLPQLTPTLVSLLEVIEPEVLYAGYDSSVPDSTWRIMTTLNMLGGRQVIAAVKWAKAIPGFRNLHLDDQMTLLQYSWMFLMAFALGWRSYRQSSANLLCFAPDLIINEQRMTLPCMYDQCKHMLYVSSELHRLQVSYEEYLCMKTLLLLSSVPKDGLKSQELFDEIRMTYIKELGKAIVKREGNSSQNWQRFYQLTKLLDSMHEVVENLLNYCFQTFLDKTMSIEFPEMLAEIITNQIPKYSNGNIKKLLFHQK
Compound,Ki (Androgen receptor),Ki [1],Ki [2],Ki (Glucocorticoid receptor)
C#C[C@]1(O)CC[C@H]2[C@@H]3CCC4=CC(=O)CCC4=C3[C@@H](c3ccc(N(C)CCOC4CC[C@@]5(C)[C@@H](C4)C[C@@H](O)[C@@H]4[C@@H]5C[C@H](O)[C@]5(C)[C@@H]([C@H](C)CCC(=O)NCCS(=O)(=O)O)CC[C@@H]45)cc3)C[C@@]21C (some centres not stated),8.9 nM,> 2250 nM,160 nM,37 nM
C#C[C@]1(O)CC[C@H]2[C@@H]3CCC4=CC(=O)CCC4=C3[C@@H](c3ccc(N(C)CCOC4CC[C@@]5(C)[C@@H](C4)C[C@@H](O)[C@@H]4[C@@H]5C[C@H](O)[C@]5(C)[C@@H]([C@H](C)CCC(=O)NCC(=O)O)CC[C@@H]45)cc3)C[C@@]21C (some centres not stated),34 nM,> 2250 nM,180 nM,8.6 nM
C#C[C@]1(O)CC[C@H]2[C@@H]3CCC4=CC(=O)CCC4=C3[C@@H](c3ccc(N(C)CCC[C@H]4[C@H](O)CC[C@@]5(C)[C@@H]4C[C@@H](O)[C@@H]4[C@@H]5C[C@H](O)[C@]5(C)[C@@H]([C@H](C)CCC(=O)O)CC[C@@H]45)cc3)C[C@@]21C,53 nM,,340 nM,52 nM
C#C[C@]1(O)CC[C@H]2[C@@H]3CCC4=CC(=O)CCC4=C3[C@@H](c3ccc(N(C)CCCC(=O)N(C)C4CC[C@@]5(C)[C@@H](C4)C[C@@H](O)[C@@H]4[C@@H]5C[C@H](O)[C@]5(C)[C@@H]([C@H](C)CCC(=O)O)CC[C@@H]45)cc3)C[C@@]21C (some centres not stated),7.4 nM,> 2250 nM,60 nM,1.2 nM
C#C[C@]1(O)CC[C@H]2[C@@H]3CCC4=CC(=O)CCC4=C3[C@@H](c3ccc(N(C)C(=O)CNC(=O)O[C@@H]4C[C@@H]5CC(O)CC[C@]5(C)[C@H]5C[C@H](O)[C@]6(C)[C@@H]([C@H](C)CCC(=O)O)CC[C@H]6[C@H]45)cc3)C[C@@]21C (some centres not stated),37 nM,> 2250 nM,230 nM,49 nM
C#C[C@]1(O)CC[C@H]2[C@@H]3CCC4=CC(=O)CCC4=C3[C@@H](c3ccc(N(C)CCNC(=O)N(C)C4CC[C@@]5(C)[C@@H](C4)C[C@@H](O)[C@@H]4[C@@H]5C[C@H](O)[C@]5(C)[C@@H]([C@H](C)CCC(=O)O)CC[C@@H]45)cc3)C[C@@]21C (some centres not stated),16 nM,> 2250 nM,34 nM,15 nM
C#C[C@]1(O)CC[C@H]2[C@@H]3CCC4=CC(=O)CCC4=C3[C@@H](c3ccc(N(C)C(C)=O)cc3)C[C@@]21C,8.9 nM,> 2250 nM,,1.4 nM
C#C[C@]1(O)CC[C@H]2[C@@H]3CCC4=CC(=O)CCC4=C3[C@@H](c3ccc(N(C)C(=O)CC[C@H](NC(=O)CC[C@@H](C)[C@H]4CC[C@H]5[C@@H]6[C@H](O)C[C@@H]7C[C@H](O)CC[C@]7(C)[C@H]6C[C@H](O)[C@]45C)C(=O)O)cc3)C[C@@]21C,34 nM,> 2250 nM,350 nM,250 nM
C#C[C@]1(O)CC[C@H]2[C@@H]3CCC4=CC(=O)CCC4=C3[C@@H](c3ccc(N(C)CCCS(=O)(=O)N(C)C4CC[C@@]5(C)[C@@H](C4)C[C@@H](O)[C@@H]4[C@@H]5C[C@H](O)[C@]5(C)[C@@H]([C@H](C)CCC(=O)O)CC[C@@H]45)cc3)C[C@@]21C (some centres not stated),17 nM,,60 nM,15 nM

# More lines, in order of falling Ki (Androgen receptor), values ahead:
Ki (Androgen receptor),Ki [1],Ki [2],Ki (Glucocorticoid receptor),Compound
21 nM,> 2250 nM,340 nM,50 nM,C#C[C@]1(O)CC[C@H]2[C@@H]3CCC4=CC(=O)CCC4=C3[C@@H](c3ccc(N(C)C(=O)CNC(=O)OC4CC[C@@]5(C)[C@@H](C4)C[C@@H](O)[C@@H]4[C@@H]5C[C@H](O)[C@]5(C)[C@@H]([C@H](C)CCC(=O)O)CC[C@@H]45)cc3)C[C@@]21C (some centres not stated)
8.9 nM,> 2250 nM,220 nM,11 nM,C#C[C@]1(O)CC[C@H]2[C@@H]3CCC4=CC(=O)CCC4=C3[C@@H](c3ccc(N(C)CCOC4CC[C@@]5(C)[C@@H](C4)C[C@@H](O)[C@@H]4[C@@H]5C[C@H](O)[C@]5(C)[C@@H]([C@H](C)CCC(=O)O)CC[C@@H]45)cc3)C[C@@]21C (stereo in doubt; form 1)
8.1 nM,1500 nM,56 nM,1.1 nM,C#C[C@]1(O)CC[C@H]2[C@@H]3CCC4=CC(=O)CCC4=C3[C@@H](c3ccc(N(C)CCOC4CC[C@@]5(C)[C@@H](C4)C[C@@H](O)[C@@H]4[C@@H]5C[C@H](O)[C@]5(C)[C@@H]([C@H](C)CCC(=O)O)CC[C@@H]45)cc3)C[C@@]21C (stereo in doubt; form 2)
6.2 nM,> 2250 nM,330 nM,1.4 nM,C#C[C@]1(O)CC[C@H]2[C@@H]3CCC4=CC(=O)CCC4=C3[C@@H](c3ccc(N(C)CCNC(=O)OC4CC[C@@]5(C)[C@@H](C4)C[C@@H](O)[C@@H]4[C@@H]5C[C@H](O)[C@]5(C)[C@@H]([C@H](C)CCC(=O)O)CC[C@@H]45)cc3)C[C@@]21C (some centres not stated)
4.6 nM,1900 nM,100 nM,1.1 nM,C#C[C@]1(O)CC[C@H]2[C@@H]3CCC4=CC(=O)CCC4=C3[C@@H](c3ccc(N(C)CCCOC4CC[C@@]5(C)[C@@H](C4)C[C@@H](O)[C@@H]4[C@@H]5C[C@H](O)[C@]5(C)[C@@H]([C@H](C)CCC(=O)O)CC[C@@H]45)cc3)C[C@@]21C (some centres not stated)
3.3 nM,> 2250 nM,56 nM,1.1 nM,C#C[C@]1(O)CC[C@H]2[C@@H]3CCC4=CC(=O)CCC4=C3[C@@H](c3ccc(N(C)CCOCCO[C@H]4CC[C@@]5(C)[C@@H](C4)C[C@@H](O)[C@@H]4[C@@H]5C[C@H](O)[C@]5(C)[C@@H]([C@H](C)CCC(=O)O)CC[C@@H]45)cc3)C[C@@]21C
